Reference: patent publication US5264209A, “Modified HIL-6” (Kirin-Amgen, Inc., priority 1990, dated 1993)

How the values were obtained:
[1] = tested on: platelets in peripheral blood; test: In vivo platelet production in mice, once a day for five days (Examples 13 and 16); parameters: species or system Balb/c mice; conditions: sixth day
Protocol: (§1) In Examples 7-10 and 13-17, the PEGylated hIL-6 polypeptides of the present invention were dissolved in PBS containing 0.1% normal mouse serum. The concentration of the solutions was adjusted so that the final volume administered was 100 μl.
The hIL-6 produced in Example 4 or its PEGylated derivatives produced in Examples 11 and 12 were administered subcutaneously to four Balb/c mice (8 weeks old, female) once a day for five days. Control mice were administered with the vehicle. Blood samples were taken on the sixth day and platelets in peripheral blood were counted.
The PEGylated hIL-6 Fr120'-2 was administered to five mice once a day for five days at a dose of 1 μg/mouse and blood samples were taken on the sixth day as described in Example 13.

[2] = Acute toxicity (Example 17); type: in vivo, Balb/c mice; conditions: for deaths during the ten day period after the administration: 1, 5, or 10 mg/kg s.c.; for acute LD50: s.c., ten day observation, 14400 min
Protocol: as §1
The acute toxicity of PEGylated hIL-6 was investigated. The hIL-6 of Example 4 or its PEGylated derivatives (Fr45-2, Fr100-2, and Fr120-2), produced in Examples 4, 11, and 12, were administered subcutaneously to five Balb/c mice (6 weeks old, male, 21-23 g weight) at a dose of either 1, 5, or 10 mg/kg weight (as polypeptide).

[3] = Castell et al. 1988; cited from earlier work
[4] = Table 7, 0.1 μg/mouse/injection s.c. once a day for five days
[5] = Table 7, 0.5 μg/mouse/injection s.c. once a day for five days
[6] = Table 7, 1 μg/mouse/injection s.c. once a day for five days
[7] = Table 7, 5 μg/mouse/injection s.c. once a day for five days
[8] = Table 7, 10 μg/mouse/injection s.c. once a day for five days
[9] = Table 6, 0.5 μg/mouse/injection s.c. once a day for five days
[10] = Table 6, 1 μg/mouse/injection s.c. once a day for five days
[11] = Table 6, 5 μg/mouse/injection s.c. once a day for five days
[12] = Table 6, 10 μg/mouse/injection s.c. once a day for five days

Fr120-3: fraction of PEG(12000)IL-6, average 8.7 free amino groups per molecule
Number of platelets (% of control) [1, 4]: 170.1 % of control
Number of platelets (% of control) [1, 5]: 205.9 % of control
Number of platelets (% of control) [1, 6]: 242.7 % of control
Number of platelets (% of control) [1, 7]: 243.1 % of control
Number of platelets (% of control) [1, 8]: 221.4 % of control

Fr120-1: fraction of PEG(12000)IL-6, average 5.2 free amino groups per molecule
Number of platelets (% of control) [1, 4]: 141.3 % of control
Number of platelets (% of control) [1, 5]: 215.5 % of control
Number of platelets (% of control) [1, 6]: 221.5 % of control
Number of platelets (% of control) [1, 7]: 246.3 % of control
Number of platelets (% of control) [1, 8]: 201.3 % of control

Fr100-2: fraction of PEG(10000)IL-6, average 7.4 free amino groups per molecule
Number of platelets (% of control) [1, 9]: 107.9 % of control
Number of platelets (% of control) [1, 10]: 148.9 % of control
Number of platelets (% of control) [1, 11]: 205.9 % of control
Number of platelets (% of control) [1, 12]: 250.8 % of control
deaths during the ten day period after the administration [2]: None of the mice was observed to die
acute LD50 [2]: over 10 mg/kg weight

Fr120-4: fraction of PEG(12000)IL-6, average 9.2 free amino groups per molecule
Number of platelets (% of control) [1, 4]: 161.5 % of control
Number of platelets (% of control) [1, 5]: 203.4 % of control
Number of platelets (% of control) [1, 6]: 221.4 % of control
Number of platelets (% of control) [1, 7]: 229.0 % of control
Number of platelets (% of control) [1, 8]: 200.4 % of control

Fr120-5: fraction of PEG(12000)IL-6, average 9.8 free amino groups per molecule
Number of platelets (% of control) [1, 4]: 154.1 % of control
Number of platelets (% of control) [1, 5]: 191.5 % of control
Number of platelets (% of control) [1, 6]: 225.4 % of control
Number of platelets (% of control) [1, 7]: 224.8 % of control
Number of platelets (% of control) [1, 8]: 235.9 % of control

Fr120-2: fraction of PEG(12000)IL-6, average 7.6 free amino groups per molecule
Number of platelets (% of control) [1, 4]: 167.4 % of control
Number of platelets (% of control) [1, 5]: 227.8 % of control
Number of platelets (% of control) [1, 6]: 233.2 % of control
Number of platelets (% of control) [1, 7]: 244.3 % of control
Number of platelets (% of control) [1, 8]: 213.2 % of control
deaths during the ten day period after the administration [2]: None of the mice was observed to die
acute LD50 [2]: over 10 mg/kg weight

Fr100-4: fraction of PEG(10000)IL-6, average 9.4 free amino groups per molecule
Number of platelets (% of control) [1, 9]: 138.7 % of control
Number of platelets (% of control) [1, 10]: 142.5 % of control
Number of platelets (% of control) [1, 11]: 226.5 % of control
Number of platelets (% of control) [1, 12]: 203.2 % of control

IL-6: interleukin-6, multi-functional cytokine
in vivo half-life in blood [3]: very short

Fr100-3: fraction of PEG(10000)IL-6, average 8.6 free amino groups per molecule
Number of platelets (% of control) [1, 9]: 113.7 % of control
Number of platelets (% of control) [1, 10]: 141.1 % of control
Number of platelets (% of control) [1, 11]: 212.7 % of control
Number of platelets (% of control) [1, 12]: 204.4 % of control

Fr100-5: fraction of PEG(10000)IL-6, average 10.0 free amino groups per molecule
Number of platelets (% of control) [1, 9]: 111.3 % of control
Number of platelets (% of control) [1, 10]: 142.8 % of control
Number of platelets (% of control) [1, 11]: 225.9 % of control
Number of platelets (% of control) [1, 12]: 202.4 % of control

Fr100-1: fraction of PEG(10000)IL-6, average 5.3 free amino groups per molecule
Number of platelets (% of control) [1, 10]: 100.0 % of control
Number of platelets (% of control) [1, 12]: 211.1 % of control
